The results in this text go back to patent publication US5942521A, “Quinolinone derivative and anti-allergic agent with said quinolinone derivative as the active ingredient” (Dainippon Ink and Chemicals, Inc., priority 1996, dated 1999).

SMILES strings stand for the structures.

In test [1] the test system is passive cutaneous anaphylaxis (PCA) reaction. As to the kind of experiment: Effect on homologous passive cutaneous anaphylaxis (PCA) reaction in rats. In kind it is in vivo. As to conditions: Rattus norvegicus, po, 0.5 h, male wistar rats; for inhibition in vivo at 100 mg/kg: test compounds, 100 mg/kg p.o., 1 hour before induction of anaphylaxis. The procedure: Effect on homologous passive cutaneous anaphylaxis (PCA) reaction in rats
This experimental animal model is caused by immediate type allergic reaction, namely, antigen-antibody reaction. In the following, the method of this pharmacological test will be explained.
Method: Male wistar rats (9 weeks old) were intradermally administered 0.05 ml of anti-serum against dinitrophenylated ascaris (DNP-As) into two sites on the shaved dorsal skin. 48 hours later, aminoquinolinone derivatives (test compounds) suspended in 0.5% methylcellulose (MC) were given orally at a dose of 100 mg/kg to the animals. 1 hour after administration of Test compounds, the animals were induced anaphylaxis by injection of saline (1 ml) dissolving 1 mg of trinitrophenylated ascaris (TNP-As) and 5 mg of Evans Blue into the tail vein of the animals. 30 minutes after induction of anaphylaxis, animals were anesthetized by ether and killed by bleeding, and were flayed dorsal skin. The leakage of dye was assessed by measuring the diameter (mean of shortest and longest diameter) of the blue spot on the inside surface of dorsal skin. As vehicle control group, only 0.5% MC solution was administered orally, and as positive control group, Tranilast suspended in 0.5% MC were administered orally at a dose of 200 mg/kg to the animals with the same method as the test compounds groups, The inhibition (%) of PCA reaction was calculated according to equation 1 and the result was shown in Table 1. Each experimental group consisted of 5 rats.
In the conditions of this experiment, it was considered that the compound, which inhibited PCA reaction by over forty (40) percent against that in vehicle control group, was evidently effective for immediate type allergy.
Inhibition (%)=(A-B)/A×100 (Equation 1)
A: leakage of dye in vehicle control group
B: leakage of dye in test compound group or positive control group

The subject of test [2] is contact dermatitis induced by picryl chloride. The experiment in a line: Effect on contact dermatitis induced by picryl chloride in mice. Format: in vivo. As to conditions: for inhibition in vivo at 20 mg/kg: test compounds, 20 mg/kg p.o. 12 hours after challenge. The procedure: Effect on contact dermatitis induced by picryl chloride in mice
The delayed type hypersensitization is inhibited by steroid, but can not be effected by known anti-allergic agents. In the following, the method of the pharmacological test will be explained.
Method: Mice, shaved their abdominal skin on previous day, were immunized by applying 0.1 ml of acetone containing 7 mg of picryl chloride to the skin of the abdomen. 7 days after immunization, the thickness of the ear was measured with a dial thickness gauge, then mice were challenged by painting […] of 1% picryl chloride olive oil solution to each side skin of left ear. 24 hours after challenge, the thickness of the left ear was measured again. The compounds of the present invention (test compounds) suspended in 0.5% MC were forcibly administered orally at a dose of 20 mg/kg 12 hours after challenge. As vehicle control group, only 0.5% MC solution was administered orally, and as positive control group, Prednisolone, steroid hormone, was administered orally at a dose of 10 mg/kg and as negative control group, Tranilast was administered orally at a dose of 200 mg/kg.
Increase (%)=(A-B)/B×100 (Equation 2)
A: thickness of the ear at 24 hours after challenge
B: thickness of the ear before challenge
Inhibition (%)=(C-D)/C×100 (Equation 3)
C: The increase (%) in vehicle control group
D: The increase (%) in test compounds group, positive control group

The mark [3] stands for this setting: Mus musculus, po, ear thickness at 24 hours, read-out: Inhibition (%) of increase of ear thickness.

Regarding `COc1ccc(/C=C/C(=O)Nc2ccccc2C(=O)O)cc1OC` [Tranilast, reference compound], the inhibition in vivo at 200 mg/kg in test [1] (positive control Tranilast, 200 mg/kg p.o.) came out at 54%; in test [2] (Mus musculus, po, negative control Tranilast, 200 mg/kg p.o., ear thickness at 24 hours, read-out: Inhibition (%) of increase of ear thickness), 6%. Besides, the “inhibition of delayed type hypersensitization (in words)” value in test [2] (Tranilast, 200 mg/kg p.o.) is “did not inhibit delayed type hypersensitization”.

Molecule `COc1c(OC(C)=O)c(=O)n(C)c2cc(N)ccc12` [compound 6, 7-amino-3-acetoxy-4-methoxy-1-methyl-2(1H)-quinolinone] came in with an inhibition in vivo at 100 mg/kg in test [1] of 46%. Besides, the inhibition in vivo at 20 mg/kg in test [2] (setting [3]) turned out to be 43%.

For the molecule `Cn1c(=O)c(O)c(O)c2ccc(N)cc21` [compound 8, 7-amino-3,4-dihydroxy-1-methyl-2(1H)-quinolinone], the inhibition in vivo at 100 mg/kg in test [1] was 48%. In test [2] (setting [3]), the inhibition in vivo at 20 mg/kg was 41%.

Regarding `CNc1ccc2c(OC)c(OC(C)=O)c(=O)n(C)c2c1` [compound 9], the inhibition in vivo at 100 mg/kg in test [1] was found to be 45%. The inhibition in vivo at 20 mg/kg in test [2] (setting [3]) came out at 43%.

For the molecule `CNc1ccc2c(OC)c(O)c(=O)n(C)c2c1` [compound 10, 7-methylamino-3-hydroxy-4-methoxy-1-methyl-2(1H)-quinolinone], the inhibition in vivo at 100 mg/kg in test [1] came out at 42%. The inhibition in vivo at 20 mg/kg in test [2] (setting [3]) stood at 40%.

Take `COc1c(O)c(=O)[nH]c2cc(N)ccc12` [compound 14, 7-amino-3-hydroxy-4-methoxy-2(1H)-quinolinone]: the inhibition in vivo at 100 mg/kg in test [1] is 44%. The inhibition in vivo at 20 mg/kg in test [2] (setting [3]) worked out at 38%.

In the case of `COc1c(OC(C)=O)c(=O)[nH]c2cc(N)ccc12` [compound 15, 7-amino-3-acetoxy-4-methoxy-2(1H)-quinolinone], in test [1], the inhibition in vivo at 100 mg/kg is 41%. In addition, the inhibition in vivo at 20 mg/kg in test [2] (setting [3]) stood at 40%.

The molecule `CCCCNc1ccc2c(OC)c(OC(C)=O)c(=O)[nH]c2c1` [compound 16, 7-butylamino-3-acetoxy-4-methoxy-2(1H)-quinolinone] returned an inhibition in vivo at 100 mg/kg in test [1] of 42%. Further, the inhibition in vivo at 20 mg/kg in test [2] (setting [3]) amounted to 36%.

For `CCCCNc1ccc2c(OC)c(O)c(=O)[nH]c2c1` [compound 17, 7-butylamino-3-hydroxy-4-methoxy-2(1H)-quinolinone], in test [1], the inhibition in vivo at 100 mg/kg was 45%. In addition, the inhibition in vivo at 20 mg/kg in test [2] (setting [3]) was 43%.

`COc1c(O)c2ccc(N)cc2n(C)c1=O` [compound 19, 7-amino-3-methoxy-4-hydroxy-1-methyl-2(1H)-quinolinone] gave an inhibition in vivo at 100 mg/kg in test [1] of 44%. Also, in test [2] (setting [3]), the inhibition in vivo at 20 mg/kg came to 45%.

With `CCOc1c(OC(C)=O)c(=O)n(C)c2cc(N)ccc12` [compound 20, 7-amino-3-acetoxy-4-ethoxy-1-methyl-2(1H)-quinolinone], the inhibition in vivo at 100 mg/kg in test [1] came to 41%. In test [2] (setting [3]), the inhibition in vivo at 20 mg/kg turned out to be 43%.

`CCCCCCCCOc1c(O)c2ccc(N)cc2n(C)c1=O` [compound 22, 7-amino-3-octyloxy-4-hydroxy-1-methyl-2(1H)-quinolinone] returned an inhibition in vivo at 100 mg/kg in test [1] of 57%. For the same molecule, the inhibition in vivo at 20 mg/kg in test [2] (setting [3]) came out at 55%.

For `CCCCCCOc1c(O)c(=O)n(C)c2cc(N)ccc12` [compound 23, 7-amino-3-hydroxy-4-hexyloxy-1-methyl-2(1H)-quinolinone], in test [1], the inhibition in vivo at 100 mg/kg was 44%. In test [2] (setting [3]), the inhibition in vivo at 20 mg/kg is 41%.

In test [1], `CCCCCCCCNc1ccc2c(O)c(OC)c(=O)n(C)c2c1` [compound 24, 7-octylamino-3-methoxy-4-hydroxy-1-methyl-2(1H)-quinolinone] gave an inhibition in vivo at 100 mg/kg of 46%. Further, the inhibition in vivo at 20 mg/kg in test [2] (setting [3]) was 44%.

In test [1], `CCCCCCOc1c(O)c2ccc(N(C)C)cc2n(C)c1=O` [compound 25, 7-dimethylamino-3-hexyloxy-4-hydroxy-1-methyl-2(1H)-quinolinone] gave an inhibition in vivo at 100 mg/kg of 47%. Also, the inhibition in vivo at 20 mg/kg in test [2] (setting [3]) was determined as 48%.

As to `CCCCCCCCOc1c(O)c(=O)n(C)c2cc(NC)ccc12` [compound 26, 7-methylamino-3-hydroxy-4-octyloxy-1-methyl-2(1H)-quinolinone], in test [1], the inhibition in vivo at 100 mg/kg was found to be 41%. In addition, the inhibition in vivo at 20 mg/kg in test [2] (setting [3]) turned out to be 39%.
